According to patent publication US4242504A, “3"-Acylated macrolide antibiotics” (Toyo Jozo Kabushiki Kaisha, priority 1978, dated 1980):
Values after ≈ are worked out from the molar mass of the structure shown.

Key:
Staph.aureus MS353 = experiment: Minimum Inhibitory Concentration (MIC), broth dilution method; assay type: cell-based; conditions: Staphylococcus aureus, inoculum size 10^6 /ml
From the text: (§1) Minimum Inhibitory Concentration (MIC) μg/ml
(§2) clinical isolates (macrolide resistant Agroup strains) inoculum size
(§3) 10^6 /ml, broth dilution method.

Staph.aureus MS353 C36 = experiment: as above; assay type: cell-based; conditions: Staphylococcus aureus, MS353C36, Staph.aureus MS353 C36, inoculum size 10^6 /ml
From the text: as §1, §2, §3

Staph.aureus 0119 = experiment: as above; assay type: cell-based; conditions: inoculum size 10^6 /ml; for MIC: Staphylococcus aureus, 0119, Staph.aureus 0119, macrolide resistant clinical isolate (A group)
From the text: as §1
(§4) *Erythromycin, oleandomycin, 16membered macrolide resistant strains of
as §2, §3

Staph. aureus 0116 = experiment: as above; assay type: cell-based; conditions: inoculum size 10^6 /ml; for MIC: Staphylococcus aureus, 0116, Staph. aureus 0116, macrolide resistant clinical isolate (A group)
From the text: as §1, §4, §2, §3

Strept.pyogenes 1022 = experiment: as above; assay type: cell-based; conditions: inoculum size 10^6 /ml; for MIC: Streptococcus pyogenes, 1022, Strept.pyogenes 1022, macrolide resistant clinical isolate (A group)
From the text: as §1, §4, §2, §3

Staph.aureus MS 353AO = experiment: as above; assay type: cell-based; conditions: macrolide resistant clinical isolate (A group), inoculum size 10^6 /ml; for MIC: Staphylococcus aureus, MS353AO
From the text: as §1, §4, §2, §3

Strept.faecalis 1501 = experiment: as above; assay type: cell-based; conditions: for MIC: Enterococcus faecalis, 1501, Strept.faecalis 1501, inoculum size 10^6 /ml
Staph.aureus 6538P = experiment: as above; assay type: cell-based; conditions: Staphylococcus aureus, inoculum size 10^6 /ml
[1] = Potency as compared with standard leucomycin

Row | Compound | MIC (Staph.aureus MS353) | MIC (Staph.aureus MS353 C36) | MIC (Staph.aureus 0119) | MIC (Staph. aureus 0116) | MIC (Strept.pyogenes 1022) | MIC (Staph.aureus MS 353AO) | MIC (Strept.faecalis 1501) | MIC (Staph.aureus 6538P) | Potency [1] | Minimum Inhibitory Concentration (MIC) (Staph.aureus 0119; Staph.aureus 0119, macrolide resistant clinical isolate (A group)) | Minimum Inhibitory Concentration (MIC) (Staph. aureus 0116; Staph. aureus 0116, macrolide resistant clinical isolate (A group)) | Minimum Inhibitory Concentration (MIC) (Strept.pyogenes 1022; Strept.pyogenes 1022, macrolide resistant clinical isolate (A group)) | Minimum Inhibitory Concentration (MIC) (Staph.aureus MS 353AO) | Minimum Inhibitory Concentration (MIC) (Strept.faecalis 1501; Strept.faecalis 1501, inoculum size 10^6 /ml)
1 | CCCC(=O)OC1(C)CC(OC2C(C)OC(OC3C(CC=O)CC(C)C(O)C=CC=CCC(C)OC(=O)CC(O)C3OC)C(O)C2N(C)C)OC(C)C1OC(C)=O (stereo not shown) [4"-acetyl-3"-butylyl LM-A5, 4"-acetyl-3"-butylyl leucomycin V] | 1.6 µg/mL (≈ 1.97 µM) | 0.8 µg/mL (≈ 0.983 µM) | > 100 µg/mL | 50 µg/mL (≈ 61.4 µM) | 6.3 µg/mL (≈ 7.74 µM) | 25 µg/mL (≈ 30.7 µM) | 0.8 µg/mL (≈ 0.983 µM) | 1.6 µg/mL (≈ 1.97 µM) | – | – | – | – | – | –
2 | CCCC(=O)OC1C(C)OC(OC2C(C)OC(OC3C(CC=O)CC(C)C(O)C=CC=CCC(C)OC(=O)CC(O)C3OC)C(O)C2N(C)C)CC1(C)OC(=O)CC (stereo not shown) [3"-propionyl LM-A5, 3"-propionyl leucomycin A5] | 1.6 µg/mL (≈ 1.93 µM) | 0.8 µg/mL (≈ 0.966 µM) | > 100 µg/mL | 12.5 µg/mL (≈ 15.1 µM) | 0.4 µg/mL (≈ 0.483 µM) | > 100 µg/mL | 0.8 µg/mL (≈ 0.966 µM) | 0.8 µg/mL (≈ 0.966 µM) | 2850 µg/mg | – | – | – | – | –
3 | CCCC(=O)OC1C(C)OC(OC2C(C)OC(OC3C(CC=O)CC(C)C(O)C=CC=CCC(C)OC(=O)CC(OC(C)=O)C3OC)C(O)C2N(C)C)CC1(C)OC(C)=O (stereo not shown) [3,3"-diacetyl LM-A5, 3,3"-diacetylleucomycin A5] | 1.6 µg/mL (≈ 1.87 µM) | 0.8 µg/mL (≈ 0.935 µM) | > 100 µg/mL | 50 µg/mL (≈ 58.4 µM) | 1.6 µg/mL (≈ 1.87 µM) | > 100 µg/mL | 1.6 µg/mL (≈ 1.87 µM) | 1.6 µg/mL (≈ 1.87 µM) | – | – | – | – | – | –
4 | CCCC(=O)OC1C(C)OC(OC2C(C)OC(OC3C(CC=O)CC(C)C(O)C=CC=CCC(C)OC(=O)CC(O)C3OC)C(O)C2N(C)C)CC1(C)OC(C)=O (stereo not shown) [3"-acetyl LM-A5, 3"-acetyl leucomycin A5] | 1.6 µg/mL (≈ 1.97 µM) | – | 100 µg/mL (≈ 123 µM) | 6.3 µg/mL (≈ 7.74 µM) | 0.4 µg/mL (≈ 0.491 µM) | > 100 µg/mL | 0.8 µg/mL (≈ 0.983 µM) | 1.6 µg/mL (≈ 1.97 µM) | 2850 µg/mg | > 100 µg/mL | 12.5 µg/mL | 0.8 µg/mL | 100 µg/mL | 1.6 µg/mL
5 | CCCC(=O)OC1C(C)OC(OC2C(C)OC(OC3C(CC=O)CC(C)C(O)C=CC=CCC(C)OC(=O)CC(O)C3OC)C(O)C2N(C)C)CC1(C)O (stereo not shown) [LM-A5, Leucomycin A5, reference compound] | 1.6 µg/mL (≈ 2.07 µM) | 1.6 µg/mL (≈ 2.07 µM) | > 100 µg/mL | > 100 µg/mL | > 100 µg/mL | > 100 µg/mL | 1.6 µg/mL (≈ 2.07 µM) | 1.6 µg/mL (≈ 2.07 µM) | – | – | – | – | – | –
6 | CCCC(=O)OC1C(C)OC(OC2C(C)OC(OC3C(CC=O)CC(C)C(O)C=CC=CCC(C)OC(=O)CC(O)C3OC)C(O)C2N(C)C)CC1(C)OC(=O)CCC (stereo not shown) [3"butylyl LM-A5, 3"-butylyl leucomycin A5] | 1.6 µg/mL (≈ 1.9 µM) | 0.4 µg/mL (≈ 0.475 µM) | 100 µg/mL (≈ 119 µM) | 50 µg/mL (≈ 59.4 µM) | 0.8 µg/mL (≈ 0.95 µM) | > 100 µg/mL | 0.8 µg/mL (≈ 0.95 µM) | 0.8 µg/mL (≈ 0.95 µM) | – | – | – | – | – | –
7 | CCCC(=O)OC1C(C)OC(OC2C(C)OC(OC3C(CC=O)CC(C)C(OC(C)=O)C=CC=CCC(C)OC(=O)CC(O)C3OC)C(O)C2N(C)C)CC1(C)OC(C)=O (stereo not shown) [9,3"-diacetyl LM-A5, 9,3"-diacetyl leucomycin A5] | 1.6 µg/mL (≈ 1.87 µM) | 0.8 µg/mL (≈ 0.935 µM) | 100 µg/mL (≈ 117 µM) | 12.5 µg/mL (≈ 14.6 µM) | 0.4 µg/mL (≈ 0.467 µM) | > 100 µg/mL | 1.6 µg/mL (≈ 1.87 µM) | 0.8 µg/mL (≈ 0.935 µM) | – | – | – | – | – | –
8 | COC1C(OC(C)=O)CC(=O)OC(C)CC=CC=CC(O)C(C)CC(CC=O)C1OC1OC(C)C(OC2CC(C)(O)C(OC(=O)CC(C)C)C(C)O2)C(N(C)C)C1O (stereo not shown) [LM-A3, Leucomycin A3, reference compound] | 3.1 µg/mL (≈ 3.74 µM) | 1.6 µg/mL (≈ 1.93 µM) | > 100 µg/mL | > 100 µg/mL | > 100 µg/mL | > 100 µg/mL | 3.1 µg/mL (≈ 3.74 µM) | 3.1 µg/mL (≈ 3.74 µM) | – | – | – | – | – | –
